Laboratory results published in US10689413B2, “Composition enriched in single isomer of NUC-1031 and preparation method and use thereof” (BrightGene Bio-Medical Technology Co., Ltd., priority 2015, dated 2020).
“Also recorded” adds a separate entry of the source.

How the values were obtained:
BxPC-3 tumor cells = assay: Tumor cell proliferation in vitro, CTG method, BxPC-3; format: cell-based; settings: BxPC-3, 72 hours; for IC50: Homo sapiens
Experimental: (§1) The 50% inhibitory concentrations (IC50) for the cell proliferation of the compound Sp-1, the compound Rp-1 and NUC-1031 in BxPC-3, MIA PaCa-2 and OVCAR-3 tumor cell lines were measured using the CTG method.
(§2) Cells in an exponential growth phase were collected and the viable cells were counted using a Vi-Cell XR cell counter. The cell suspension was adjusted to 3.33×10^4/ml or 5.56×10^4/ml with culture media corresponding to the respective cells. 90 μl of cell suspension was added to each well of a 96-well cell culture plate, and the final cell concentrations of BxPC-3 and MIA PaCa-2 were 3000 cells/well and the final cell concentration of OVCAR-3 was 5000 cells/well. Each test compound was dissolved in DMSO to become 10 mM stock solutions. 3.16× serial dilutions were prepared by the stock solutions and DMSO. Then the dilutions were respectively diluted 100 times with the culture media. Finally, to each well of the respective cell lines was added 10 μl of the corresponding 10-fold solution, triplicate wells were set up for each drug concentration (see the methods for formulating the compounds and the design of sample adding: the plate map for IC50 determination); for the concentration ranges of the test compounds and the reference compounds used for the final tests, please see the methods for formulating the compounds and the design of sample adding on the following pages: the test compounds and the reference compounds were diluted, and the final concentration of DMSO in each well was 0.1%. The cells were placed in an incubator at 37° C. with 5% CO2 to be cultured for 72 hours (BxPC-3, MIA PaCa-2) or 96 hours (OVCAR-3). After 72 or 96 hours of drug treatment, 50 μl (½ culture volume) of CTG solution, which had been melted and equilibrated to room temperature in advance was added to each well according to the operating instruction of CTG; the mixtures were mixed evenly for 2 minutes with a microwell plate shaker, placed at room temperature for 10 minutes, and then an Envision 2104 plate reader was used to measure the values of the […] signals.
(§3) Cell viability was calculated with the formula: Vsample/Vvehicle control×100%, wherein Vsample is the reading of the treatment group and Vvehicle control is the average value of the vehicle control group. Non-linear regression model was used to plot the S-shape dose-survival rate curves and calculate the IC50 values using GraphPad Prism 5.0 software.

MIA PaCa-2 tumor cells = assay: Tumor cell proliferation in vitro, CTG method, MIA PaCa-2; format: cell-based, human; settings: MIA PaCa-2, 72 hours; for IC50: Homo sapiens
Experimental: as §1, §2, §3

OVCAR-3 tumor cells = assay: Tumor cell proliferation in vitro, CTG method, OVCAR-3; format: cell-based; settings: OVCAR-3, 96 hours; for IC50: Homo sapiens
Experimental: as §1, §2, §3

[1] = tested on: BxPC-3, MIA PaCa-2 and OVCAR-3 tumor cells; assay: Tumor cell proliferation in vitro, summary over the three cell lines; format: cell-based; settings: for IC50: span over BxPC-3, MIA PaCa-2 and OVCAR-3, read-out: IC50 values (cytotoxic effect)
Experimental: as §1, §2, §3

[2] = tested on: MIA PaCa-2 human pancreatic cancer subcutaneous xenograft; assay: Pharmacodynamic evaluation in human pancreatic cancer subcutaneous xenograft mouse model; format: in vivo, BALB/c nude mice; settings: for Relative tumor inhibition rate TGI: 0.19 mmoL/kg i.p. twice a week for 4 consecutive weeks (gemcitabine 50 mg/kg, others 110 mg/kg)
Experimental: Cell Culture: MIA PaCa-2 cells were cultured in a DMEM culture medium containing 10% fetal bovine serum and 2.5% HS. MIA PaCa-2 cells in an exponential growth phase were collected and resuspended in PBS to a suitable concentration for the subcutaneous tumor inoculation in nude mice.
Animal modeling and Grouping: BALB/c nude mice, female, 6 to 8 weeks old (the predicted weeks of age of the mice when being inoculated with tumor cells), 18 to 22 g, purchased from Shanghai Lingchang Biological Technology Co., LTD. A total of 52 mice (40 plus 30% surplus) were required. After grouping, there were 5 groups in total, each group having 8 mice. All experimental mice were raised in a barrier system and adapted to the environment for at least 7 days in advance. Each mice was subcutaneously inoculated with 3×10^6 MIA PaCa-2 cells on the right back and the cells were resuspended in PBS and matrigel (1:1) (0.1 ml/mice); the tumor growth was observed regularly, and when the tumor volumes reached an average size of 150 to 200 mm^3, the mice were randomly divided into groups according to the size of tumor and body weight of the mice, and the drugs were administered.
Relative tumor inhibition rate TGI(%): TGI %=(1−T/C)×100%. T/C % is the relative tumor growth rate, which is the percentage of the relative tumor volume or tumor weight of the treatment groups with respect to the control group at a certain timepoint. T and C are the relative tumor volume (RTV) or tumor weight (TW), respectively, of the treatment groups and the control group at a particular timepoint.
The calculation formula is as follows: T/C %=TRTV/CRTV×100% (TRTV: the average RTV of a treatment group; CRTV: the average RTV of the vehicle control group; RTV=Vt/V0, V0 is the tumor volume of an animal at the time of grouping, Vt is the tumor volume of an animal after treatment). Or T/C %=TTW/CTW×100% (TTW: the average tumor weight of a treatment group at the end of the experiment; CTW: the average tumor weight of the vehicle control group at the end of the experiment).

SMILES | Max inh. (BxPC-3 tumor cells) | IC50 (BxPC-3 tumor cells) | IC50 (MIA PaCa-2 tumor cells) | Max inh. (MIA PaCa-2 tumor cells) | IC50 (OVCAR-3 tumor cells) | Max inh. (OVCAR-3 tumor cells) | IC50 [1] | inhibitory effect on the proliferation activity of tumor cells in vitro relative to compound Rp-1 ([1]; versus compound Rp-1) | Relative tumor inhibition rate TGI [2] | in vivo antitumor activity, comparison in words ([2]; equimolar dose, i.p., BIW x 4)
C[C@H](N[P@](=O)(OC[C@H]1O[C@@H](n2ccc(N)nc2=O)C(F)(F)[C@@H]1O)Oc1ccccc1)C(=O)OCc1ccccc1 [Compound Sp-1] | 66.48% | 0.045 nM | 0.012 nM | 71% | 0.013 nM | 58.22% | 0.01 to 1 nM | about 10 times | 79% | better in vivo anti-tumor activity than the compound Rp-1; also recorded: better in vivo antitumor activity as compared with gemcitabine and the compound Rp-1
C[C@H](NP(=O)(OC[C@H]1O[C@@H](n2ccc(N)nc2=O)C(F)(F)[C@@H]1O)Oc1ccccc1)C(=O)OCc1ccccc1 (stereo partly drawn) [NUC-1031] | 65.82% | 0.263 nM | 0.063 nM | 65.03% | 0.095 nM | 56.3% | 0.01 to 1 nM | – | 54% | –
Nc1ccn([C@@H]2O[C@H](CO)[C@@H](O)C2(F)F)c(=O)n1 [Gemcitabine, reference compound] | – | – | – | – | – | – | – | – | 55% | –
C[C@H](N[P@@](=O)(OC[C@H]1O[C@@H](n2ccc(N)nc2=O)C(F)(F)[C@@H]1O)Oc1ccccc1)C(=O)OCc1ccccc1 [Compound Rp-1] | 61.54% | 0.554 nM | 0.126 nM | 69.2% | 0.167 nM | 54.19% | 0.01 to 1 nM | – | 22% | –
